# In patent US12557812B2, “Method and composition for water treatment” (BROMINE COMPOUNDS LTD., priority 2019, dated 2026):
# Legend:
# [1] = system: biofilm culture derived from fresh-water mixed microbial community obtained from cooling tower water; test: Simultaneous CDA and biocide on mixed biofilm from cooling tower water, 24-well plates; assay type: cell-based; settings: 15 ppm DBNPA, 310 nM CDA, two hours (FIG. 5B)
# Experimental: (§1) The effect of bromine-containing biocide in combination with CDA on pre-grown biofilms was studied. The experiment was carried out utilizing (A) the P. aeruginosa strain PA14 and (B) mixed bacterial species derived from environmental and industrial water.
# (§2) Bacteria were cultured in EPRI medium supplemented with Hutners mineral solution and glucose (0.2%). Microorganisms were incubated at room temperature (22° C.), under aerobic conditions with shaking. The biofilm culture system used included polystyrene 24-well plates that were treated with protein to enhance attachment and growth of biofilm bacteria according to the method described in Davies D G, Marques C N, 2009, J Bacteriol 191:1393-1403.
# (§3) Following inoculation with 1 mL bacterial culture, spent medium was removed and replaced with sterile medium every 24 hours for 3 days, and a final medium exchange was performed 3 hours prior to treatment. Additionally, the medium was exchanged prior to treatment in order to remove planktonic bacteria. Treatments consisted of 100 μL of 310 nM CDA and bromine-containing biocide, or bromine-containing biocide alone at concentrations used in commercial water treatment, water was used as a carrier, for a contact time determined by activity of each biocide and ranging from 1 hour to 24 hours, as detailed below for each of the tested biocides. […]
# [2] = system: undefined mixed microbial biofilm cultures derived from an environmental water source; test: Simultaneous CDA and biocide on mixed biofilm from environmental water, 24-well plates; assay type: cell-based; settings: 15 ppm DBNPA, 310 nM CDA, two hours (FIG. 5A)
# Experimental: as §1, §2, §3
# [3] = system: P. aeruginosa (ATCC 700888) massive biofilm; test: Sequential CDA then biocide on massive biofilm grown in drip flow tubes (modified ASTM 2647-13); assay type: cell-based, Pseudomonas aeruginosa; settings: 30.0 ppm DBNPA 3 h after 310 nM CDA 2 h (FIG. 18)
# Text: The effect of the sequential addition of CDA and bromine-containing biocide was studied using P. aeruginosa biofilm grown in the drip flow tubes (according to a modification of standard ASTM 2647-13, standard Test Method for Quantification of Pseudomonas aeruginosa Biofilm Grown Using Drip Flow Biofilm Reactor with Low Shear and Continuous Flow). This method produces massive biofilm resulting with harsh conditions that are very difficult to treat. The addition of the bromine-containing biocide took place 120 min after the addition of 310 nM CDA (the biocide that was tested in this study was DBNPA).
# • a) A continuous once-through tube system was configured by using silicone coated latex tubes, connected to a peristaltic pump via additional silicone tubing. • b) The silicone coated latex tubes were inoculated by syringe injection of overnight cultures of P. aeruginosa (ATCC 700888), 5*10^7 CFU/ML in 10% TSB (Tryptic Soy Broth). […]
# The following treatments were conducted: • 1. […] Each dilution was cultured in duplicate (on R2A agar) for colony growth using the pour plating method. • h) The plates were incubated at 36° C. for 17-20 h. • i) The appropriate number of colonies were counted. […]
# [4] = system: P. aeruginosa strain PA14 biofilm; test: Simultaneous application of CDA and biocide on 3-day biofilm in 24-well plates; assay type: cell-based, Pseudomonas aeruginosa; settings: 15 ppm DBNPA, 310 nM CDA, two hours (FIG. 3)
# Experimental: as §1, §2
# Following inoculation with 1 mL bacterial culture, spent medium was removed and replaced with sterile medium every 24 hours for 3 days, and a final medium exchange was performed 3 hours prior to treatment. Additionally, the medium was exchanged prior to treatment in order to remove planktonic bacteria. Treatments consisted of 100 μL of 310 nM CDA and bromine-containing biocide, or bromine-containing biocide alone at concentrations used in commercial water treatment, water was used as a carrier, for a contact time determined by activity of each biocide and ranging from 1 hour to 24 hours, as detailed below for each of the tested biocides.
# Following the treatment, the medium from each well was removed by pipet and 1 mL of DE neutralization broth was added in order to stop the treatment. Bacteria from each well were then removed by scraping the biofilm formed in the well with a sterile cell-scraper, and 1.0 mL of culture was transferred to chilled (4° C.) 9.0 mL DE neutralizing broth and homogenized for 15 seconds at 40,000 rpm on ice. Further dilutions were performed prior to enumeration (further neutralizing biocide activity). Recovery of bacteria were tested at different dilutions of biocide in water, in LB medium with thioglycolate and in DE neutralizing broth to ensure the active agent was properly neutralized. Viable bacteria were enumerated via the drop plate method. Each biocide was evaluated using 24-well plates with 8 wells each for the control cultures (Ctl) inoculated with P. aeruginosa but not treated, a CDA minus test (−CDA) treated with bromine-containing biocide only, and a CDA plus test treated with bromine-containing biocide and CDA (+CDA).
# [5] = system: Pseudomonas aeruginosa biofilm; test: Sequential application of CDA then biocide on 3-day-old biofilm grown in CDC biofilm reactor (single tube method); assay type: cell-based; settings: biocide 10 ppm
# [6] = Storage stability of biocide/CDA liquid concentrates (HPLC); assay type: physicochemical; settings: Example 6 concentrate C103-PEG200-H2O-CDA-BHT 20:50:30:0.1:0.1; 25° C., two months
# Experimental: 22 mg of cis-2-decenoic acid (CiVentiChem, 96.72% purity) were charged into 50 ml flask, equipped with a stirrer 3.99 gr of C-103 (ICL, batch 640160147) were added, followed by 9.97 gr of PEG200 (Merck 8.07483.5000 Lot 56904983 451), 5.95 gr of DI water and 22 mg of BHT (Aldrich B1378-100G, BCBH9491V). The obtained solution was stirred till complete clarification; sonication at +30° C. is recommended if some particles are observed. Clear colorless solution of a total […] and 20:50:30:0.1:0.1 weight ratio of C103-PEG200-H2O-CDA-BHT was obtained.
# The solution was tested to determine the stability of the biocide and CDA and under storage at 25° C. over a two-month period.
# 47.6 mg or cis-2-decenoic acid (CiVentiChem, 96.72% purity) were charged into 50 ml flask, equipped with a stirrer. 9.01 gr of Bronopol (ICL, batch 17101607) were added, followed by 18.03 gr of propylene glycol (Biolab 16200201 Lot 1007861), 3.0 gr of DI water and 31.2 mg of BHT (Aldrich B1378-100G, BCBH9491V). After stirring for several minutes, undissolved traces of BHT were filtered through filtering paper for BHT particle removal. Clear colorless solution of a total 30 gr and 30:60:10:0.158:0.1 weight ratio of Bronopol-PG-H2O-CDA-BHT was obtained.
compound,measurement,setting,value
"N#CC(Br)(Br)C(N)=O [DBNPA, 2,2-dibromo-3-nitrilopropionamide]",effect of biocide and CDA compared with biocide alone,[1],improved result
same,effect of biocide and CDA compared with biocide alone,[2],improved result
same,enhancement of biocidal effect by combined treatment over biocide alone,[3],~2 log orders
same,effect of biocide and CDA compared with biocide alone,[4],improved effect
same,Log reduction vs. control: biocide alone,"[5]; 1 h contact time, 3-day-old biofilm",~3 log units
same,Enhancement,[5]; 310 nM CDA combination vs biocide alone,~2 log units
same,Log reduction vs. control: combination of the 310 nM CDA and biocide,[5]; 1 h CDA 310 nM then 1 h biocide,~5 log units
same,enhancement by combined treatment relative to biocide alone,"[5]; text of Example 2, 310 nM commercial CDA (97% by GC)",two
same,biofilm reduction by biocide alone,"[5]; text of Example 2, 1 h",reduces the biofilm
same,degradation under storage (HPLC),[6],Neither DBNPA nor CDA underwent degradation
